Assay results: US9067926B2, “Fluoromethyl-5,6-dihydro-4H-[1,3]OXAZINES” (F. Hoffmann-La Roche AG, priority 2012, dated 2015)

Experiments:
[1] = test system: Aβ40 in brain; test: In vivo inhibition of Aβ40 in brain of wild-type mice; details: Mus musculus, po; 10 mg/kg p.o., brain Aβ40 after 4 h, female C57Bl/6J mice; read-out: in vivo effect, Percentage of control @ 10 mg/kg p.o
Description: In Vivo Experiments. […] The test compound was dissolved in 5% EtOH, 10% Solutol and was applied per os at 10 ml/kg. After 4 h the animals were sacrificed and brain and plasma were collected. The brain was cut into halves and immediately frozen on dry ice. Brain was used for measurement of Aβ40 and plasma was used for determination of compound exposure. […] Brain tissue was homogenized in 2% DEA buffer in a Roche […] (20'', 4000 rpm) and subsequently centrifuged for 1 h at 100'000 g. DEA was reduced to 0.2% in 50 mM NaCl and one half of the DEA lysate was passed over an Oasis Solid Phase extraction plate (Waters; Cat.Nr. 186000679) which had been activated with MeOH and equilibrated in dH2O (1 ml each). After washes in 10% and 30% MeOH (1 ml each) the AP-peptides were eluted in 0.8 ml 2% NH4OH in 90% MeOH. […] Aβ40 was determined by an AlphaLISA assay (Perkin Elmer). In a white 96well half-area microplate (Perkin Elmer Cat.Nr. 6005561), 20 μl of the reconstituted sample were mixed with 5 μl biotinylated BAP-24 (specific for C-terminus of Aβ40 (Brockhaus, M.; Grunberg, J.; Rohrig, S.; Loetscher, H.; Wittenburg, N.; Baumeister, R.; Jacobsen, […]. Caspase-mediated cleavage is not required for the activity of presenilins in amyloidogenesis and NOTCH signaling. […] The mix was incubated for 1 h at RT in the dark. Then 20 μl Streptavin-coated Donor Beads (Perkin Elmer Cat. Nr. 6760002, final dilution 1:125) were added and this final mix was incubated in the dark for another 30 min at r.t. before RFU was measured in an AlphaScreen Reader(Perkin Elmer Envision 2104).

[2] = molecular target: T1, recombinant human cathepsin E (Homo sapiens, UniProt P14091); test: Cathepsin E fluorescent substrate kinetic assay; assay type: biochemical; details: pH 4.5
T1 construct: purchased R&D Systems
T1 sequence (P14091 54-396): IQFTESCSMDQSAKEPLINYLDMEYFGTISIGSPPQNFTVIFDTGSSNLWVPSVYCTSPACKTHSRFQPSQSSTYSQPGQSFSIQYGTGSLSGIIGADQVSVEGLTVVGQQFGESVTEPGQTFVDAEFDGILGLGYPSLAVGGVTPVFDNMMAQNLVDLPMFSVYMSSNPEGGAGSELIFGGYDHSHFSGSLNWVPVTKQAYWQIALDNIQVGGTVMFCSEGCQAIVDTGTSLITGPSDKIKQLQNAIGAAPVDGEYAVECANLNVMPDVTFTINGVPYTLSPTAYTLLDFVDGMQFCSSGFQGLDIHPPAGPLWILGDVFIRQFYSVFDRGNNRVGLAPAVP
Excerpt: Cathepsin D and Cathepsin E Fluorescent Substrate Kinetic Assays
The MR121 fluorescence assays described below are based on the fact that MR121 forms a non-fluorescent ground state complex with tryptophan. In solution this formation occurs at millimolar concentrations of tryptophan. The mechanism can be used to design a generic biochemical assay for proteases. […] In absence of protease activity, the substrates remain intact and the MR121 fluorescence is reduced by the high local Trp-concentration. If the substrates are cleaved by the enzymes the MR121 fluorescence is recovered.
The fluorescent substrate cathepsin D and cathepsin E kinetic assays were performed at room temperature in 384-well microtiter plates (black with clear flat bottom, non binding surface plates from Corning) in a final volume of 51 μl. The test compounds were serially diluted in DMSO (15 concentrations, 1/3 dilution steps) and 1 μl of diluted compounds were mixed for 10 min with 40 μl of cathepsin D (from human liver, Calbiochem) diluted in assay buffer (100 mM sodium acetate, 0.05% BSA, pH 5.5; final concentration: 200 nM) or with 40 μl of recombinant human cathepsin E (R&D Systems) diluted in assay buffer (100 mM sodium acetate, 0.05% BSA, pH 4.5; final concentration: 0.01 nM). […] The slope in the linear range of the kinetic was calculated and the IC50 of the test compounds were determined using a four parameter equation for curve fitting.

[3] = molecular target: hERG (Homo sapiens, UniProt Q12809); test: hERG current measurement (automated patch clamp); assay type: cell-based
Description: The hERG current measurement was performed at an automated patch clamp system following the procedure described in R. E. Martin et al. in Bio org.

[4] = molecular target: T2, CYP2C9 (Homo sapiens, UniProt P11712); test: CYP inhibition assay, CYP2C9; assay type: in vitro ADME; details: pooled human liver microsomes, diclofenac substrate; read-out: CYP IC50 2C9
T2 construct: 0.2 mg/ml pooled human liver microsomes; from tissue; host or cells: pooled human liver microsomes
Description: (§1) Inhibition of cytochromes P450 (CYPs) 2C9, 2D6 and 3A4 was assessed using human liver microsomes and CYP-selective substrate metabolism reactions. […] Quenched incubates were stored at −20° C. for at least 1 hour before centrifugation (20,000×g, 20 minutes). Supernatants were removed and diluted 1:1 with water prior to analysis using a RapidFire sample injector system and API4000 mass spectrometer. Peak areas for substrate, metabolite and stable-labelled metabolite standard were determined using MS/MS. The peak area ratios between the metabolite generated by the enzymatic reaction and the internal standard were used in subsequent calculations. The percentage of (DMSO) control activity was calculated for each incubate and IC50 values estimated by non-linear regression. Sulfaphenazole, quinidine or ketoconazole were tested in each CYP2C9, CYP2D6 or CYP3A4 inhibition experiment, respectively, to ensure assay sensitivity and reproducibility.

[5] = molecular target: T3, CYP3A4 (Homo sapiens, UniProt P08684); test: CYP inhibition assay, CYP3A4; assay type: in vitro ADME; details: pooled human liver microsomes, midazolam substrate; read-out: CYP IC50 3A4
T3 construct: 0.2 mg/ml pooled human liver microsomes; from tissue; host or cells: pooled human liver microsomes
Description: as §1

T3 sequence (P08684 whole entry): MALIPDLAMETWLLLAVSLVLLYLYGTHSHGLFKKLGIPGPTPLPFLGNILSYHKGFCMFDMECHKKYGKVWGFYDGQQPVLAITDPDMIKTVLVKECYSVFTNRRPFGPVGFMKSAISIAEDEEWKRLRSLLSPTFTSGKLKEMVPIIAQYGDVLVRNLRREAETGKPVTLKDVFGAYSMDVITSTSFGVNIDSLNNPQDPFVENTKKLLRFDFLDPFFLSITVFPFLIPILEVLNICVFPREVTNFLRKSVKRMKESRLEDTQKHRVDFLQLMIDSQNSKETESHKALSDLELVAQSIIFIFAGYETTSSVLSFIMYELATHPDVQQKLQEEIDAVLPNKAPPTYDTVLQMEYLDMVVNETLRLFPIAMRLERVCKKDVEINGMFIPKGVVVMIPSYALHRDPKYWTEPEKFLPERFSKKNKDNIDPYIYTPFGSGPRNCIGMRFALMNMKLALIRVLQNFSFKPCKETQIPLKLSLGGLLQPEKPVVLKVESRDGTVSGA
T2 sequence (P11712 whole entry): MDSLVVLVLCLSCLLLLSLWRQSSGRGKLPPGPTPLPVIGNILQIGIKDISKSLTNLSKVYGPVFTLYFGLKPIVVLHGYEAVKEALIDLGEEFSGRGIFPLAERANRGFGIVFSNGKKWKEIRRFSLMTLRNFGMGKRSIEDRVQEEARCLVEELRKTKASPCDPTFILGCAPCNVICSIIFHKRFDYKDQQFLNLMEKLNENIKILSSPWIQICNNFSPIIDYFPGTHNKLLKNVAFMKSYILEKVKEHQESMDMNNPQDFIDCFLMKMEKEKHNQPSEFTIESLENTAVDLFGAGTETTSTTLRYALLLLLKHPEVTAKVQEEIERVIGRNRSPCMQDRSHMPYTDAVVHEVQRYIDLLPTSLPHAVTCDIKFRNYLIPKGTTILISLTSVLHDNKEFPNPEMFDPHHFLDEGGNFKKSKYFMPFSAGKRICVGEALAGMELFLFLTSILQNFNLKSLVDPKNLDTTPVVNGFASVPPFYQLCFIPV
Sequence of hERG (Q12809 whole entry): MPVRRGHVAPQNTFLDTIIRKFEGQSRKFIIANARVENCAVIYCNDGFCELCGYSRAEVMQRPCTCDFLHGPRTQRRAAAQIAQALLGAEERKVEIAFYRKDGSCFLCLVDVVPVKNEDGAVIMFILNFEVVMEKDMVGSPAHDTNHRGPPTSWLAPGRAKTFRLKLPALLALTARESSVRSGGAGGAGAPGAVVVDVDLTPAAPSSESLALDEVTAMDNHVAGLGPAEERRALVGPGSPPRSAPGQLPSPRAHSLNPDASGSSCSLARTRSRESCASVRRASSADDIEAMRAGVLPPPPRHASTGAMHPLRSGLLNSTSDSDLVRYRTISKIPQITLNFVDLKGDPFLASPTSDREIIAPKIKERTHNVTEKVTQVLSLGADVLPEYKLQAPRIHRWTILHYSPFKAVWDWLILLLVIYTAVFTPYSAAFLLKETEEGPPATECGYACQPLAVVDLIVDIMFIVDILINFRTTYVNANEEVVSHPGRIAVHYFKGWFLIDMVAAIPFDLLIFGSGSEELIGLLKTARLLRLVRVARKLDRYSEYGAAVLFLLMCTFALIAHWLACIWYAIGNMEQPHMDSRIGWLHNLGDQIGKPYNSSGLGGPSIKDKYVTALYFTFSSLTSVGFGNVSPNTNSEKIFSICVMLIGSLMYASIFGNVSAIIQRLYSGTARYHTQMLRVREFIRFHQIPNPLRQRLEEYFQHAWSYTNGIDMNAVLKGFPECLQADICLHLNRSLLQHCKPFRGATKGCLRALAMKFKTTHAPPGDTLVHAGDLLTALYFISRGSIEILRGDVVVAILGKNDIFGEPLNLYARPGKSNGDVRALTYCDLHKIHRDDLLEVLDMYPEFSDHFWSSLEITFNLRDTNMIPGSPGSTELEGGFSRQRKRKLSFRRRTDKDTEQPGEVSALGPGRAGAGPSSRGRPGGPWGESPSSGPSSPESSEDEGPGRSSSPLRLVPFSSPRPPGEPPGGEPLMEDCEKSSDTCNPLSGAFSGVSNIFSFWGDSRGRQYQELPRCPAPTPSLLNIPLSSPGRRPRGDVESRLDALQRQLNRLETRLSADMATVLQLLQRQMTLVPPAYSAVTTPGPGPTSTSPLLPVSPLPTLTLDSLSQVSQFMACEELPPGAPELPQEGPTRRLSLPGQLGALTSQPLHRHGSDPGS

`C[C@@]1(c2cc(NC(=O)c3ccc(Cl)cn3)ccc2F)C[C@@H](C(F)(F)F)OC(N)=N1` [Example 2, N-(3-((4S,6S)-2-amino-4-methyl-6-(trifluoromethyl)-5,6-dihydro-4H-1,3-oxazin-4-yl)-4-fluorophenyl)-5-chloropicolinamide] was tested, and the response vs control in vivo at 10 mg/kg [1] was 93%, the IC50 [2] was > 200 µM and the “hERG Inhibition @ 10 μM” value [3] was 84. For the same compound, the IC50 [4] was > 50 µM and the IC50 [5] was > 50 µM.

For `C[C@@]1(c2cc(NC(=O)c3ccc(OCF)cn3)ccc2F)C[C@@H](C(F)(F)F)OC(N)=N1` [Example 11, N-(3-((4S,6S)-2-Amino-4-methyl-6-(trifluoromethyl)-5,6-dihydro-4H-1,3-oxazin-4-yl)-4-fluorophenyl)-5-(fluoromethoxy)picolinamide], the response vs control in vivo at 10 mg/kg [1] was 87%, the IC50 [2] was > 200 µM and the “hERG Inhibition @ 10 μM” value [3] was 26. For the same compound, the IC50 [4] was > 50 µM and the IC50 [5] was > 50 µM.

With `CC#CCOc1cnc(C(=O)Nc2ccc(F)c([C@]3(C)C[C@@H](C(F)(F)F)OC(N)=N3)c2)cn1` [Example 22, N-(3-((4S,6S)-2-Amino-4-methyl-6-(trifluoromethyl)-5,6-dihydro-4H-1,3-oxazin-4-yl)-4-fluorophenyl)-5-(but-2-ynyloxy)pyrazine-2-carboxamide] the response vs control in vivo at 10 mg/kg [1] was 83%, the IC50 [2] was > 200 µM and the IC50 [4] was 33 µM. For the same compound, the IC50 [5] was > 50 µM.

With `NC1=N[C@](CF)(c2cc(NC(=O)c3ccc(OCF)cn3)ccc2F)C[C@@H](C(F)(F)F)O1` [Example 35, N-(3-((4S,6S)-2-Amino-4-(fluoromethyl)-6-(trifluoromethyl)-5,6-dihydro-4H-1,3-oxazin-4-yl)-4-fluorophenyl)-5-(fluoromethoxy)picolinamide] the response vs control in vivo at 10 mg/kg [1] was 74%, the IC50 [2] was > 200 µM and the “hERG Inhibition @ 10 μM” value [3] was 26. For the same compound, the IC50 [4] was 33 µM and the IC50 [5] was > 50 µM.
